Values quoted from earlier work, collected in patent publication US8993607B2, “Therapeutic compounds” (Rutgers, The State University of New Jersey, priority 2007, dated 2015).

Columns and labels:
[1] = system: human breast cancer cell lines HBC-4, BSY-1, HBC-5, MCF-7, and MDA-MB-231; conditions: range over HBC-4, BSY-1, HBC-5, MCF-7, MDA-MB-231; Sohda et al., 2005
LANS = conditions: human neuroblastoma cell line LANS; Binz et al., 2005; read-out: cytotoxicity IC50
K62 leukemia cells = conditions: Tauchi et al., 2003
LAN1 = conditions: human neuroblastoma cell line LAN1; Binz et al., 2005; read-out: cytotoxicity IC50
[2] = system: natural bone marrow CD34-positive cells; conditions: compared, Tauchi et al., 2003
WAC2 = conditions: human neuroblastoma cell line WAC2; Binz et al., 2005; read-out: cytotoxicity IC50
SK-N-AS = conditions: human neuroblastoma cell line SK-N-AS; Binz et al., 2005; read-out: cytotoxicity IC50
telomerase = conditions: read-out: telomerase inhibitory activity IC50
MiaPaCa = conditions: human pancreatic carcinoma MiaPaCa; Liu et al., 2005; read-out: cytotoxicity IC50

GI50 [1]	IC50 (telomerase)	Compound	IC50 (LANS)	plating efficiency (K62 leukemia cells)	IC50 (LAN1)	effect on burst-forming units—erythrocyte (BFU-E) and colony-forming units—granulocyte/macrophage (CFU-GM) [2]	IC50 (WAC2)	IC50 (SK-N-AS)	IC50 (MiaPaCa)
15 to 33 nM	–	CC[C@H](C)[C@@H]1NC(=O)c2nc(oc2-c2ccccc2)-c2csc(n2)-c2coc(n2)-c2coc(n2)-c2coc(n2)CNC(=O)[C@@H](C(C)C)NC1=O [YM-216391]	–	–	–	–	–	–	–
–	5 nM	Cc1oc2nc1-c1nc(co1)-c1nc(co1)-c1nc(co1)-c1nc(co1)-c1nc(co1)C1=NC(CS1)c1nc-2c(C)o1 (stereo not drawn) [telomestatin]	2500 nM	suppress the plating efficiency	4000 nM	much lesser effect	3200 nM	800 nM	500 nM
